Results reported in patent US9849130B2 (KamTek, Inc., priority 2014, dated 2017).
Values after ≈ are worked out from the molar mass of the structure shown.

Key:
[1] = test system: Clostridium difficile (CD) strains; experiment: microbe, parasite or virus in culture; type: cell-based
C. perfringens MH310 = experiment: microbe, parasite or virus in culture; type: cell-based; conditions: C. perfringens MH310
Escherichia coli strains = experiment: MIC by microdilution in Mueller-Hinton broth against Escherichia coli strains; type: cell-based; conditions: for MIC: Mueller-Hinton broth
Enterococcus faecalis = experiment: MIC by microdilution in Mueller-Hinton broth against Enterococcus faecalis strains; type: cell-based
[2] = test system: Staphylococcus aureus strains; experiment: MIC by microdilution in Mueller-Hinton broth against Staphylococcus aureus strains; type: cell-based
Fusobacterium = experiment: MIC by microdilution in Brucella broth against Fusobacterium; type: cell-based, Fusobacterium spp.; conditions: Brucella broth
Bifidobacterium strains = experiment: MIC by microdilution in BHI broth against Bifidobacterium strains; type: cell-based, Bifidobacterium spp.; conditions: BHI broth
Lactobacillus strains = experiment: MIC against Lactobacillus strains; type: cell-based, Lactobacillus spp.; conditions: broth microdilution, BHI with 0.02% Tween 80, pH 6.0
[3] = test system: Lachnospiraceae and related bacterial strains; experiment: MIC against Lachnospiraceae and related bacterial strains; type: cell-based, Lachnospiraceae spp.; conditions: broth microdilution, brucella broth

CCN=c1cc2n(-c3cccc(C(F)(F)F)c3)c3ccccc3nc-2cc1Nc1cccc(C(F)(F)F)c1 [B4129]
antibacterial activity against CD, fold greater than MET [1]: 32 fold | antibacterial activity against CD, fold greater than VAN [1]: 16 fold | MIC ([1]; CD strain BAA1805 (hyper-virulent strain BI/NAP1/027), BB): 0.062 µg/mL (≈ 0.118 µM) | MIC50 ([1]; n = 37): ≦0.031 μg/ml | MIC90 ([1]; n = 37): 0.125 µg/mL (≈ 0.237 µM) | MIC Range ([1]; n = 37): ≦0.031-0.25 μg/ml | MIC (C. perfringens MH310; BB): 0.25 µg/mL (≈ 0.475 µM) | MIC (C. perfringens MH310; BHI): 2 µg/mL (≈ 3.8 µM) | activity against E. coli (in words) (Escherichia coli strains): relatively inactive | MIC (Escherichia coli strains; Escherichia coli strain NR 6): >32 µg/mL | MIC (Escherichia coli strains; Escherichia coli strain NR 8): >32 µg/mL | MIC (Escherichia coli strains; Escherichia coli strain NR 96): >32 µg/mL | MIC (Escherichia coli strains; Escherichia coli strain NR 104): >32 µg/mL | MIC (Escherichia coli strains; Escherichia coli strain NR 17626): >32 µg/mL | MIC (Escherichia coli strains; Escherichia coli strain NR 17627): >32 µg/mL | MIC (Escherichia coli strains; Escherichia coli strain NR 17633): >32 µg/mL | MIC (Escherichia coli strains; Escherichia coli strain NR 17647): >32 µg/mL | MIC (Escherichia coli strains; Escherichia coli strain NR 17650): >32 µg/mL | MIC (Escherichia coli strains; Escherichia coli strain NR 17661): >32 µg/mL | MIC (Enterococcus faecalis; E. faecalis NR 31884): >32 µg/mL | MIC (Enterococcus faecalis; E. faecalis NR 31885): >32 µg/mL | MIC (Enterococcus faecalis; E. faecalis NR 31886): >32 µg/mL | MIC (Enterococcus faecalis; E. faecalis NR 31887): >32 µg/mL | MIC (Enterococcus faecalis; E. faecalis NR 31888): >32 µg/mL | MIC ([2]; Staphylococcus aureus strain NR 10129): 32 µg/mL (≈ 60.8 µM) | MIC ([2]; Staphylococcus aureus strain NR 10186): >32 µg/mL | MIC ([2]; Staphylococcus aureus strain NR 10187): >32 µg/mL | MIC ([2]; Staphylococcus aureus strain NR 10188): >32 µg/mL | MIC ([2]; Staphylococcus aureus strain NR 10189): >32 µg/mL | MIC ([2]; Staphylococcus aureus strain NR 10191): >32 µg/mL | MIC ([2]; Staphylococcus aureus strain NR 10192): >32 µg/mL | MIC ([2]; Staphylococcus aureus strain NR 10193): >32 µg/mL | MIC ([2]; Staphylococcus aureus strain NR 10194): 32 µg/mL (≈ 60.8 µM) | MIC ([2]; Staphylococcus aureus strain NR 10198): >32 µg/mL | MIC (Fusobacterium; F. nucleatum HM-75): >32 µg/mL | MIC (Fusobacterium; F. nucleatum HM-260): >32 µg/mL | MIC (Fusobacterium; F. nucleatum HM-992): >32 µg/mL | MIC (Fusobacterium; F. nucleatum HM-993): 8 µg/mL (≈ 15.2 µM) | MIC (Fusobacterium; F. nucleatum HM-994): >32 µg/mL | MIC (Fusobacterium; F. nucleatum HM-995): >32 µg/mL | MIC (Fusobacterium; F. nucleatum HM-996): >32 µg/mL | MIC (Fusobacterium; F. nucleatum HM-997): >32 µg/mL | MIC (Fusobacterium; Fusobacterium sp. HM 42): >32 µg/mL | MIC (Fusobacterium; Fusobacterium sp. HM 57): >32 µg/mL | MIC (Fusobacterium; Fusobacterium sp. HM-556): >32 µg/mL | MIC (Fusobacterium; Fusobacterium sp. HM-758): >32 µg/mL | MIC (Fusobacterium; Fusobacterium sp. HM-871): >32 µg/mL | MIC (Fusobacterium; Fusobacterium sp. HM-874): >32 µg/mL | MIC (Fusobacterium; Fusobacterium sp. HM-875): >32 µg/mL | MIC (Bifidobacterium strains; Bifidobacterium adolescentis HM-633): >32 µg/mL | MIC (Bifidobacterium strains; Bifidobacterium breve HM-411): >32 µg/mL | MIC (Bifidobacterium strains; Bifidobacterium breve HM-412): 0.25 µg/mL (≈ 0.475 µM) | MIC (Bifidobacterium strains; Bifidobacterium breve HM-856): >32 µg/mL | MIC (Bifidobacterium strains; Bifidobacterium breve HM-1120): >32 µg/mL | MIC (Bifidobacterium strains; Bifidobacterium longum HM-845): ≦0.031 μg/ml | MIC (Bifidobacterium strains; Bifidobacterium longum HM-846): 0.25 µg/mL (≈ 0.475 µM) | MIC (Bifidobacterium strains; Bifidobacterium longum HM-847): 2 µg/mL (≈ 3.8 µM) | MIC (Bifidobacterium strains; Bifidobacterium sp. HM-30): 4 µg/mL (≈ 7.6 µM) | MIC (Bifidobacterium strains; Bifidobacterium sp. HM-868): >32 µg/mL | MIC (Lactobacillus strains; Lactobacillus crispatus HM-637): 16 µg/mL (≈ 30.4 µM) | MIC (Lactobacillus strains; Lactobacillus gasseri HM-104): >32 µg/mL | MIC (Lactobacillus strains; Lactobacillus iners HM-126): 1 µg/mL (≈ 1.9 µM) | MIC (Lactobacillus strains; Lactobacillus jensenii HM-105): >32 µg/mL | MIC (Lactobacillus strains; Lactobacillus jhonsonii HM-643): >32 µg/mL | MIC (Lactobacillus strains; Lactobacillus reuteri HM-102): >32 µg/mL | MIC (Lactobacillus strains; Lactobacillus rhamnosus HM-106): >32 µg/mL | MIC (Lactobacillus strains; Lactobacillus sp. HM-228): 1 µg/mL (≈ 1.9 µM) | MIC (Lactobacillus strains; Lactobacillus sp. HM-478): >32 µg/mL | MIC (Lactobacillus strains; Lactobacillus vaginalis HM-405): 2 µg/mL (≈ 3.8 µM) | MIC ([3]; Clostridiales bacterium HM-84): ≦0.031 μg/ml | MIC ([3]; Clostridiales bacterium HM-182): 0.125 µg/mL (≈ 0.237 µM) | MIC ([3]; Eubacterium sp. HM-178): 0.125 µg/mL (≈ 0.237 µM) | MIC ([3]; Lachnospiraceae sp. HM-7): ≦0.031 μg/ml | MIC ([3]; Lachnospiraceae sp. HM-150): 0.125 µg/mL (≈ 0.237 µM) | MIC ([3]; Lachnospiraceae sp. HM-153): 0.125 µg/mL (≈ 0.237 µM) | MIC ([3]; Lachnospiraceae sp. HM-154): 0.125 µg/mL (≈ 0.237 µM) | MIC ([3]; Lachnospiraceae sp. HM-157): 0.25 µg/mL (≈ 0.475 µM) | MIC ([3]; Lachnospiraceae sp. HM-161): 0.125 µg/mL (≈ 0.237 µM) | MIC ([3]; Lachnospiraceae sp. HM-480): 0.062 µg/mL (≈ 0.118 µM) | MIC ([3]; Lachnospiraceae sp. HM-558): 0.125 µg/mL (≈ 0.237 µM) | MIC ([3]; Lachnospiraceae sp. HM-768): ≦0.031 μg/ml | MIC ([3]; Lachnospiraceae sp. HM-868): >32 µg/mL | MIC ([3]; Peptostreptococcaceae sp. HM-766): 0.5 µg/mL (≈ 0.95 µM)
